According to patent US11382918B2, “Methods for treating Huntington's Disease” (PTC Therapeutics, Inc., priority 2017, dated 2022):

These molecules were tested on Endogenous Huntingtin Protein (HTT) (assay: Endogenous Huntingtin Protein Assay (ELISA-based MSD electrochemiluminescence)). Conditions: Table 1.
Format: cell-based
Experimental: Compounds of Formula (I) were tested using the Meso Scale Discovery (MSD) Assay provided in International Application No. PCT/US2016/066042, filed on Dec. 11, 2016 and claiming priority to U.S. Provisional Application 62/265,652 filed on Dec. 10, 2015, published as International Publication No. WO 2017/100726 on Jun. 15, 2017, the entire contents of which are incorporated herein by reference.
The Endogenous Huntingtin Protein assay used in Example 1 was developed using the ELISA-based MSD electrochemiluminescence assay platform.
Endogenous Huntingtin Protein Assay
Meso Scale Discovery (MSD) 96-well or 384-well plates were coated overnight at 4° C. with MW1 (expanded polyglutamine) or MAB2166 monoclonal antibody (for capture) at a concentration of 1 μg/mL in PBS (30 μL per well). Plates were then washed three times with 300 µL wash buffer (0.05% Tween-20 in PBS) and blocked (100 μL blocking buffer; 5% BSA in PBS) for 4-5 hours at room temperature with rotational shaking and then washed three times with wash buffer.
Samples (25 μL) were transferred to the antibody-coated MSD plate and incubated overnight at 4° C. After removal of the lysates, the plate was washed three times with wash buffer, and 25 μL of #5656S (Cell signaling; rabbit monoclonal) secondary antibody (diluted to 0.25 μg/mL in 0.05% Tween-20 in blocking buffer) was added to each well and incubated with shaking for 1 Hour at room temperature. Following incubation with the secondary antibody, the wells were rinsed with wash buffer after which 25 μL of goat anti-rabbit SULFO TAG secondary detection antibody (required aspect of the MSD system) (diluted to 0.25 μg/mL in 0.05% Tween-20 in blocking buffer) was added to each well and incubated with shaking for 1 hour at room temperature. After rinsing three times with wash buffer, 150 μL of read buffer T with surfactant (MSD) were added to each empty well, and the plate was imaged on a SI 6000 imager (MSD) according to manufacturers' instructions provided for 96- or 384-well plates.
Work on `Cc1cn(-c2cc(=O)n3cc(N4CCNCC4)ccc3n2)cn1` [compound 179, 2-(4-methyl-1H-imidazol-1-yl)-7-(piperazin-1-yl)-4H-pyrido[1,2-a]pyrimidin-4-one] yielded an IC50 of 3000 to 33000 nM.
Work on `Cc1nc(O)c2cc(-c3cc(=O)n4cc(N5CCNCC5)ccc4n3)ccc2n1` [compound 840, 2-(4-hydroxy-2-methylquinazolin-6-yl)-7-(piperazin-1-yl)-4H-pyrido[1,2-a]pyrimidin-4-one] yielded an IC50 of 3000 to 33000 nM.
`CN(C)c1ccc(-c2cc(=O)n3cc(C4=CCNCC4)ccc3n2)cn1` [compound 444, 2-[6-(dimethylamino)pyridin-3-yl]-7-(1,2,3,6-tetrahydropyridin-4-yl)-4H-pyrido[1,2-a]pyrimidin-4-one] gave an IC50 of 3000 to 33000 nM.
Molecule `Cc1cn2cc(-c3cc(=O)n4cc(N5CCN6CCC[C@H]6C5)ccc4n3)cc(F)c2n1` [compound 271, 2-(8-fluoro-2-methylimidazo[1,2-a]pyridin-6-yl)-7-[(8aS)-hexahydropyrrolo[1,2-a]pyrazin-2(1H)-yl]-4H-pyrido[1,2-a]pyrimidin-4-one] has an IC50 of 1000 to 3000 nM.
`Cc1nc2ccc(-c3cc(=O)n4cc(N5CCNC(C)(C)C5)ccc4n3)cc2o1` [compound 194, 7-(3,3-dimethylpiperazin-1-yl)-2-(2-methyl-1,3-benzoxazol-6-yl)-4H-pyrido[1,2-a]pyrimidin-4-one] gave an IC50 of 3000 to 33000 nM.
Work on `Cc1cc(C2CC(C)(C)NC(C)(C)C2)cn2c(=O)cc(-c3ccc4nn(C)cc4c3)nc12` [compound 867, 9-methyl-2-(2-methyl-2H-indazol-5-yl)-7-(2,2,6,6-tetramethylpiperidin-4-yl)-4H-pyrido[1,2-a]pyrimidin-4-one] yielded an IC50 of 3000 to 33000 nM.
Molecule `Cn1cc2cc(-c3cc(=O)n4cc(C5CCN(CCO)CC5)ccc4n3)ccc2n1` [compound 613, 7-[1-(2-hydroxyethyl)piperidin-4-yl]-2-(2-methyl-2H-indazol-5-yl)-4H-pyrido[1,2-a]pyrimidin-4-one] has an IC50 of 1000 to 3000 nM.
Molecule `Cc1cn2nc(-c3cc(=O)n4cc(C5CCNCC5)ccc4n3)cc2c(C)n1` [compound 452, 2-(4,6-dimethylpyrazolo[1,5-a]pyrazin-2-yl)-7-(piperidin-4-yl)-4H-pyrido[1,2-a]pyrimidin-4-one] has an IC50 of 100 to 500 nM.
Molecule `Cc1cc2cc(-c3cc(=O)n4cc(C5=CCNCC5)ccc4n3)ccn2n1` [compound 857, 2-(2-methylpyrazolo[1,5-a]pyridin-5-yl)-7-(1,2,3,6-tetrahydropyridin-4-yl)-4H-pyrido[1,2-a]pyrimidin-4-one] has an IC50 of 500 to 1000 nM.
`CCN1CCC(c2cn3c(=O)cc(-c4cc5c(C)nc(C)cn5c4)nc3c(C)n2)CC1` [compound 876, 2-(1,3-dimethylpyrrolo[1,2-a]pyrazin-7-yl)-7-(1-ethylpiperidin-4-yl)-9-methyl-4H-pyrazino[1,2-a]pyrimidin-4-one] was tested, and the IC50 was 1000 to 3000 nM.
Work on `CN(C)c1ccc(-c2cc(=O)n3cc(C4CCNCC4)ccc3n2)cn1` [compound 465, 2-[6-(dimethylamino)pyridin-3-yl]-7-(piperidin-4-yl)-4H-pyrido[1,2-a]pyrimidin-4-one] yielded an IC50 of 3000 to 33000 nM.
`Cc1cn2cc(-c3ccc4nc(C5CCNCC5)cc(=O)n4c3)ccc2n1` [compound 409, 7-(2-methylimidazo[1,2-a]pyridin-6-yl)-2-(piperidin-4-yl)-4H-pyrido[1,2-a]pyrimidin-4-one] showed an IC50 of 1000 to 3000 nM.
In the case of `Cc1ccc2nc(-c3cc(=O)n4cc(N5CCNCC5)ccc4n3)cn2c1` [compound 29, 2-(6-methylimidazo[1,2-a]pyridin-2-yl)-7-(piperazin-1-yl)-4H-pyrido[1,2-a]pyrimidin-4-one], the IC50 is reported as 3000 to 33000 nM.
`Cc1cn2cc(-c3cc(=O)n4cc(C5CCN(CCO)CC5)ncc4n3)cc(C)c2n1` [compound 594, 2-(2,8-dimethylimidazo[1,2-a]pyridin-6-yl)-7-[1-(2-hydroxyethyl)piperidin-4-yl]-4H-pyrazino[1,2-a]pyrimidin-4-one] was tested, and the IC50 was 1000 to 3000 nM.
`Cc1cn2cc(-c3cc(=O)n4cc(N5CCN(C6CC6)CC5)ccc4n3)cc(F)c2n1` [compound 412, 7-(4-cyclopropylpiperazin-1-yl)-2-(8-fluoro-2-methylimidazo[1,2-a]pyridin-6-yl)-4H-pyrido[1,2-a]pyrimidin-4-one] gave an IC50 of 3000 to 33000 nM.
`Cc1cn2cc(-c3cc(=O)n4cc(N5CCN(C)CC5)ccc4n3)ccc2n1` [compound 114, 2-(2-methylimidazo[1,2-a]pyridin-6-yl)-7-(4-methylpiperazin-1-yl)-4H-pyrido[1,2-a]pyrimidin-4-one] was tested, and the IC50 was 3000 to 33000 nM.
`CCN1CCC(c2cn3c(=O)cc(-c4ccc5nn(C)cc5c4)nc3cn2)CC1` [compound 568, 7-(1-ethylpiperidin-4-yl)-2-(2-methyl-2H-indazol-5-yl)-4H-pyrazino[1,2-a]pyrimidin-4-one] showed an IC50 of 1000 to 3000 nM.
Work on `CCc1nc(C)cn2nc(-c3cc(=O)n4cc(C5=CCNCC5)cc(C)c4n3)cc12` [compound 773, 2-(4-ethyl-6-methylpyrazolo[1,5-a]pyrazin-2-yl)-9-methyl-7-(1,2,3,6-tetrahydropyridin-4-yl)-4H-pyrido[1,2-a]pyrimidin-4-one] yielded an IC50 of 3000 to 33000 nM.
With `Cc1cn2nc(-c3cc(=O)n4cc(C5=CCNCC5)cc(C)c4n3)cc2c(C)n1` [compound 480, 2-(4,6-dimethylpyrazolo[1,5-a]pyrazin-2-yl)-9-methyl-7-(1,2,3,6-tetrahydropyridin-4-yl)-4H-pyrido[1,2-a]pyrimidin-4-one] the IC50 was 100 to 500 nM.
`CCc1nc(C)cn2nc(-c3cc(=O)n4cc(N5CCN(CCO)[C@H](C)C5)ccc4n3)cc12` [compound 632, 2-(4-ethyl-6-methylpyrazolo[1,5-a]pyrazin-2-yl)-7-[(3R)-4-(2-hydroxyethyl)-3-methylpiperazin-1-yl]-4H-pyrido[1,2-a]pyrimidin-4-one] gave an IC50 of 1000 to 3000 nM.
For `Cc1cn2cc(-c3cc(=O)n4cc(C5CCNCC5)ncc4n3)cc(C)c2n1` [compound 588, 2-(2,8-dimethylimidazo[1,2-a]pyridin-6-yl)-7-(piperidin-4-yl)-4H-pyrazino[1,2-a]pyrimidin-4-one], the IC50 was 500 to 1000 nM.
Molecule `Cc1cn2nc(-c3cc(=O)n4cc(N5CCN[C@@H](C)C5)ccc4n3)cc2cn1` [compound 441, 7-[(3S)-3-methylpiperazin-1-yl]-2-(6-methylpyrazolo[1,5-a]pyrazin-2-yl)-4H-pyrido[1,2-a]pyrimidin-4-one] has an IC50 of 1000 to 3000 nM.
Work on `Cc1cn2cc(-c3ccc4nc(C5CCN(C)CC5)cc(=O)n4c3)ccc2n1` [compound 460, 7-(2-methylimidazo[1,2-a]pyridin-6-yl)-2-(1-methylpiperidin-4-yl)-4H-pyrido[1,2-a]pyrimidin-4-one] yielded an IC50 of 3000 to 33000 nM.
Work on `Cc1cn2nc(-c3cc(=O)n4cc(N5CCC(N6CCOCC6)CC5)ccc4n3)cc2c(C)n1` [compound 428, 2-(4,6-dimethylpyrazolo[1,5-a]pyrazin-2-yl)-7-[4-(morpholin-4-yl)piperidin-1-yl]-4H-pyrido[1,2-a]pyrimidin-4-one] yielded an IC50 of 3000 to 33000 nM.
`Cc1nc2ccc(-c3cc(=O)n4cc(C5=CCN(C)CC5)ncc4n3)cc2o1` [compound 422, 2-(2-methyl-1,3-benzoxazol-6-yl)-7-(1-methyl-1,2,3,6-tetrahydropyridin-4-yl)-4H-pyrazino[1,2-a]pyrimidin-4-one] gave an IC50 of 100 to 500 nM.
`CCN1CCN(c2ccc3nc(-c4cc(C)c5c(cnn5C)c4)cc(=O)n3c2)CC1` [compound 845, 2-(1,7-dimethyl-1H-indazol-5-yl)-7-(4-ethylpiperazin-1-yl)-4H-pyrido[1,2-a]pyrimidin-4-one] gave an IC50 of 3000 to 33000 nM.
For `COc1cnc(-c2cc(=O)n3cc(N4CCNCC4)ccc3n2)cc1OC` [compound 199, 2-(4,5-dimethoxypyridin-2-yl)-7-(piperazin-1-yl)-4H-pyrido[1,2-a]pyrimidin-4-one], the IC50 was 3000 to 33000 nM.
Molecule `COc1cc(O)ccc1-c1cc(=O)n2cc(C3=CCN(C(=O)OC(C)(C)C)CC3)ccc2n1` [compound 847, tert-butyl 4-[2-(4-hydroxy-2-methoxyphenyl)-4-oxo-4H-pyrido[1,2-a]pyrimidin-7-yl]-3,6-dihydropyridine-1(2H)-carboxylate] has an IC50 of 3000 to 33000 nM.
`Cc1cc(C2CCN(C3CC3)CC2)cn2c(=O)cc(-c3ccc4nn(C)cc4c3)nc12` [compound 718, 7-(1-cyclopropylpiperidin-4-yl)-9-methyl-2-(2-methyl-2H-indazol-5-yl)-4H-pyrido[1,2-a]pyrimidin-4-one] was tested, and the IC50 was 100 to 500 nM.
`Cc1cn2cc(-c3cc(=O)n4cc(N5CCN(C)CC5)ccc4n3)cc(C)c2n1` [compound 868, 2-(2,8-dimethylimidazo[1,2-a]pyridin-6-yl)-7-(4-methylpiperazin-1-yl)-4H-pyrido[1,2-a]pyrimidin-4-one] gave an IC50 of 1000 to 3000 nM.
`CCN1CC=C(c2ccc3nc(-c4cc(F)c5nc(C)oc5c4)cc(=O)n3c2)CC1` [compound 318, 7-(1-ethyl-1,2,3,6-tetrahydropyridin-4-yl)-2-(4-fluoro-2-methyl-1,3-benzoxazol-6-yl)-4H-pyrido[1,2-a]pyrimidin-4-one] was tested, and the IC50 was 1000 to 3000 nM.
